Patent publication US7420029B2, “Tissue-specific transporter inhibitor” (Japan Science and Technology Agency, priority 2001, dated 2008)
One block for each molecule: values may come before it.

Columns and labels:
hPEPT 1 [1] = biological target: T1, hPEPT 1 (Homo sapiens, UniProt P46059); assay: Inhibitory effect on [^3H] Gly-Sar uptake by HeLa-hPEPT 1 cells; assay type: cell-based; conditions: for [^3H] Gly-Sar uptake % of control: HeLa-hPEPT 1, pH 6.0, 2 min
T1 construct: expressed in transfected cells; mock = HeLa-pcDNA 3
T1 sequence (P46059 1-708): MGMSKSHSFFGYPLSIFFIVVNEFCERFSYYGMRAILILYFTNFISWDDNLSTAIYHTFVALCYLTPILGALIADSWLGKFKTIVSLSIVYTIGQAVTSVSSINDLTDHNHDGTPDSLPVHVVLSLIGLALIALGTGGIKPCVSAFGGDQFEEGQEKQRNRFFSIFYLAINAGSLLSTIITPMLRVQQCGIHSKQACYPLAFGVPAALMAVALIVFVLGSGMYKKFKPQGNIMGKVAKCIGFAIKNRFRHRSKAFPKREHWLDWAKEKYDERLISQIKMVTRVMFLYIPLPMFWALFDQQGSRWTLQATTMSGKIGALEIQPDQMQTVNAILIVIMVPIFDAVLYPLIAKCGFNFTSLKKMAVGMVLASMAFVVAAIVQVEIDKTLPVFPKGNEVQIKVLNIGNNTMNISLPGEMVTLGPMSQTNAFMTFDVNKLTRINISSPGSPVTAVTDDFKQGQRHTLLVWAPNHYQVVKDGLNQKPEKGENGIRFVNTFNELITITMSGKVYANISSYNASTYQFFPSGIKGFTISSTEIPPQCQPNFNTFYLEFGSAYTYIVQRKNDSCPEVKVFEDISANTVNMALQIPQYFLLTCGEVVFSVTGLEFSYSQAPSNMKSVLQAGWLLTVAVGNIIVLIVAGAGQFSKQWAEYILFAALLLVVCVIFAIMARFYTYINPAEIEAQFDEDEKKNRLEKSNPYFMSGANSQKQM
Description: In order to examine the recognition property of VK-PRX and its component, VK-α-CD, both obtained in Example 4, to PEPT 1, the inihibitory effect to the uptake of [^3H] Gly-Sar by using HeLa cells stably expressing hPEPT 1 (HeLa-hPEPT 1) was examined. HeLa-hPEPT 1 cells or HeLa-pcDNA (Mock) cells prepared by the method described previously (Int. J. Cancer. 88, 274-80, 2000) were placed in a multidish (Nunc) at 10^6 cells/well and cultured in an incubator (Hirasawa) at 37° C. and 5% CO2 for four days. As a broth, DMEM (Dulbecco's modified Eagle's medium; Gibco Laboratories) containing 10% FCS (Gibco Laboratories), 2 mM L-glutamine, and 1 mg/ml G418 was used. After culture, the broth was aspirated and each cell was washed three times with 1 ml of Hanks' balanced salt solution (HBSS; 0.952 mM CaCl2, 5.36 mM KCl, 0.441 mM KH2PO4, 0.812 mM MgSO4, 136.7 mM NaCl, 0.385 mM Na2HPO4, 25 mM D-glucose, 10 mM MES: pH 6.0) at 37° C., then preincubated for five minutes. Subsequently, 250 μl of HBSS containing each inhibitor with the concentration shown in FIG. 4 and Table 8, and [^3H(G)] Gly-Sar (476 nM) was added and an uptake reaction was initiated at 37° C. The inhibitors, VK-PRX (No. 1˜6), were prepared such that the highest concentration of dissolved VK-PRX would be 500 μM or lower, and were filtrated through a filter, and then used for the uptake reaction. At the beginning of the reaction, the reaction solution was taken from each dish and placed into […]. Then, 4 ml of liquid scintillation cocktail (Clear-sol I, Nacalai tesque) was added to the solution, and radioactivity in the reaction solution was measured by a liquid scintillation counter (LSC-5100, Aloka Co. Ltd.). Two minutes after the beginning of the reaction, the reaction solution in each dish was removed by aspiration, and the reaction was stopped by washing the cells three times with 1 ml of ice-cooled HBSS (HEPES: pH 7.4). Subsequently, 250 μl of 5 N NaOH was added to each dish to solubilize the cells (for two hours or longer), and 250 μl of 5 N HCl was added for neutralization, then the whole amount was poured into mini vial, and 4 ml of liquid scintillation cocktail (Clear-sol I, Nacalai tesque) was added, and radioactivity taken in the cells was measured.
Further, in order to measure the amount of cellular proteins after the culture mentioned above, the cultured cells were solubilized, Bio-Rad Protein Assay reagent (Bio-Rad Co.) was added, and the absorbance at 595 nm was measured. As a standard, BSA (bovine serum albumin) was used. Based on the results, the uptake amount of [^3H] Gly-Sar into the cells [cell/medium ratio (μl/mg·protein)] was calculated according to the formula (3). The value of the control in FIG. 4 is the result of the uptake reaction conducted in the absence of the inhibitor. […] It has been shown that the uptake of [^3H]

PEPT 1 [2] = biological target: T2, PEPT 1 (Rattus norvegicus, UniProt P51574); assay: in vivo; conditions: male, Sprague-Dawley, po; for Tmax: Tmax of CDX
T2 sequence (P51574 1-710): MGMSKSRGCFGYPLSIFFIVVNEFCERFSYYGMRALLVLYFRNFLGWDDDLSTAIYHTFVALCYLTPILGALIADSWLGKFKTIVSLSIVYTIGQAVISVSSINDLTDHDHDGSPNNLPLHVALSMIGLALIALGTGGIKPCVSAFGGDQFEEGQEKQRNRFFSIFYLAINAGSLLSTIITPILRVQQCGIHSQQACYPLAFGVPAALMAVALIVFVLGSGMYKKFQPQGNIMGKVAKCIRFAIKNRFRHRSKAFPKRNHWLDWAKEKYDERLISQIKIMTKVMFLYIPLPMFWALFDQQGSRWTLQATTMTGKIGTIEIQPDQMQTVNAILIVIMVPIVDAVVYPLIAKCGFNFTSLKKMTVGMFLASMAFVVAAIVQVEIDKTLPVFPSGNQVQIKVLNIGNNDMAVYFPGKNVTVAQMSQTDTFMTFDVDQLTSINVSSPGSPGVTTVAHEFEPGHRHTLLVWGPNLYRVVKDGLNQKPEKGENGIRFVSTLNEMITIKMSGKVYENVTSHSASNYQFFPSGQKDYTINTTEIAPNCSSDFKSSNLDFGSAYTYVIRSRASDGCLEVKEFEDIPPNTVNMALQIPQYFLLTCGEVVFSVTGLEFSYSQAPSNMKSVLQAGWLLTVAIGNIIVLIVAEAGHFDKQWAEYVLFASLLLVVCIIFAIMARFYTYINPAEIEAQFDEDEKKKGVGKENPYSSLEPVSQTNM
Description: (§1) At the column temperature 35° C., 7% of acetonitrile (containing 0.1 M of acetic acid buffer (pH 3.0) and 0.01 M of 1-pentasulfonic acid sodium) was used as a mobile phase for separating elution at flow rate 0.9 ml/min. The detection was conducted at wavelength 240 nm, and CDX concentration in the plasma was determined.
(§2) In the formula, C, F, D, ka, ke, Vd and t represent CDX concentration in the plasma, absorptance, dosage, absorption rate constant, elimination rate constant, distribution volume, and time interval between the drug administration and blood collection, respectively.
(§3) In the formula, CL represents total clearance, Dose represents the dose of the drug, respectively.
(§4) With regard to 2.5 mg/kg CDX and 45 mg/kg CEX (▾), CEX was orally administered to the rats 30 minutes before the administration of CDX. Each pharmacokinetic parameter of the above-mentioned rats was calculated based on the change in the CDX concentration in the blood, with the formula (4), the formula (6), the formula (7), and the formula (8), and evaluated. Values shown in the figure and the table are the mean±S.E.M. of three to four independent experiments.
(§5) Then each pharmacokinetic parameter was calculated based on the change in the CDX concentration in the blood, with the formula (4), the formula (6), the formula (7), and the formula (8), and evaluated. […] Values shown in the figures are the mean±S.E.M. of two to four independent experiments, and values shown in the tables are the mean±S.E.M. of three independent experiments.
(§6) Values shown in the figure and the table are the mean±S.E.M. of two to four independent experiments.
(§7) VK-PRK was orally administered 30 minutes before CDX administration. […] Values shown in FIG. 10, FIG. 11 and Table 14 are the mean±S.E.M. of four independent experiments, and values shown in Table 13 are the mean±S.E.M. of three independent experiments.
(§8) Values shown in the figure are the mean±S.E.M. of three independent experiments, and values shown in the table are the mean±S.E.M. of four independent experiments.

[3] = CDX plasma pharmacokinetics after instant intravenous injection to rats with or without oral VK-PRX; conditions: male, Sprague-Dawley, rat
Description: as §1
In the formula, α, β and V1 represent gradient of distribution phase, gradient of elimination phase, and distribution volume of central compartment, respectively.
as §3

PEPT 1 [4] = biological target: T2, PEPT 1; conditions: in vivo, po
Description: as §1, §2, §3, §4, §5, §6, §7, §8

hPEPT 1 [5] = biological target: T1, hPEPT 1; assay: Effect of preincubation with inhibitor on [^3H] Gly-Sar uptake by HeLa-hPEPT 1 cells; assay type: cell-based; conditions: FIG. 5
Description: Gly-Sar uptake was examined by using HeLa cells stably expressing hPEPT 1 (HeLa-hPEPT 1). In the presence or absence of each inhibitor with concentrations shown in FIG. 5, preincubation was conducted for 30 minutes (open columns), and after the reaction solution was removed, the inhibitory effect on [^3H] Gly-Sar uptake was measured in a manner similar to that of Example 5 except that the uptake reaction was conducted in HBSS containing the same concentration of the inhibitor and [^3H] Gly-Sar (476 nM) (closed columns). In the figure, “Mock” indicates the uptake by HeLa-pcDNA 3 cells. […] Gly-Sar.

Molecule: CC1=C(C(=O)O)N2C(=O)[C@@H](NC(=O)[C@H](N)c3ccc(O)cc3)[C@H]2SC1 [Cefadroxil, cefadroxil]
[^3H] Gly-Sar uptake % of control (hPEPT 1 [1]; inhibitor 10 mM): 27.69 ± 1.44 % of control
AUC(0-inf) (PEPT 1 [2]; 5 mg/kg, AUC0-∞ of CDX): 2700 ng·h/mL
Tmax (PEPT 1 [2]; 5 mg/kg): 1.09 ± 0.08 h
k el (PEPT 1 [2]; 5 mg/kg, ke (elimination rate constant) of CDX): 8.61e-05 s⁻¹
Tmax (PEPT 1 [2]; […]): 0.95 h
Vd [3]: 0.162 ± 0.00899 L
clearance [3]: 11 ± 0.41 mL/min
dose dependence of AUC0−∞ and Cmax of CDX (in words) (PEPT 1 [4]): saturation phenomenon
AUC0-∞ of CDX (PEPT 1 [4]; male, Sprague-Dawley, 5 mg/kg): 272 ± 9.27 µg·min/mL
ke (elimination rate constant) of CDX (PEPT 1 [4]; male, Sprague-Dawley, 5 mg/kg): 0.54 ± 0.06 h⁻¹

Molecule: CC1=C(C(=O)O)N2C(=O)C(NC(=O)C(N)c3ccccc3)C2SC1 (centres unmarked) [Cephalexin, cephalexin]
[^3H] Gly-Sar uptake % of control (hPEPT 1 [1]; inhibitor 10 mM): 70.12 ± 1.45 % of control

Molecule: NCC(=O)O [Gly]
[^3H] Gly-Sar uptake % of control (hPEPT 1 [1]; inhibitor 10 mM): 97.71 ± 7.10 % of control

Molecule: CC(C)[C@H](N)C(=O)N[C@@H](CCCCN)C(=O)O [Val-Lys, valyl-lysine]
[^3H] Gly-Sar uptake % of control (hPEPT 1 [1]; inhibitor 3 mM): 21.13 ± 1.80 % of control

The next lines start with results.

Inhibitory effect on [^3H] Gly-Sar uptake (in words) (hPEPT 1 [5]): no inhibitory effect
[^3H] Gly-Sar uptake % of control (hPEPT 1 [1]; inhibitor 3 mM): 125.87 ± 23.34 % of control
Molecule: OC[C@H]1O[C@@H]2O[C@H]3[C@H](O)[C@@H](O)[C@@H](O[C@H]4[C@H](O)[C@@H](O)[C@@H](O[C@H]5[C@H](O)[C@@H](O)[C@@H](O[C@H]6[C@H](O)[C@@H](O)[C@@H](O[C@H]7[C@H](O)[C@@H](O)[C@@H](O[C@H]1[C@H](O)[C@H]2O)O[C@@H]7CO)O[C@@H]6CO)O[C@@H]5CO)O[C@@H]4CO)O[C@@H]3CO [α-CD, α-cyclodextrin]
Inhibitory effect on [^3H] Gly-Sar uptake (in words) (hPEPT 1 [1]; HeLa-hPEPT 1, FIG. 4 and Table 8): significant inhibitory effect was not observed

[^3H] Gly-Sar uptake % of control (hPEPT 1 [1]; inhibitor 10 mM): 12.93 ± 2.45 % of control
Molecule: Gly-Sar
